Where “and” joins values, the source holds several entries; their conditions need not be identical. Equal values may be shown once. After the bases stand the sugars from the 5' end (letter, count) and the backbone: PS all phosphorothioate, else s phosphorothioate and o phosphodiester by linkage. Methylation of C is not given here. k = constrained ethyl (cEt); d = 2'-deoxy (DNA)
Molecular target: IRF4
Details: ASO, SK-MEL-28, 4 µM

| Sequence | target mRNA inhibition |
| --- | --- |
| TCCACTTTATCAAGAC (sugars k3 d10 k3, PS) | 65% |
| TCCATATGACCCAGTG (sugars k3 d10 k3, PS) | 66% |
| TCCCAAGATCGAGCGG (sugars k3 d10 k3, PS) | 16% |
| TCCCAGAGTTGTTCCA (sugars k3 d10 k3, PS) | 26% |
| TCCTAAATCACCCTGG (sugars k3 d10 k3, PS) | 21% |
| TCCTCCTCGCGGTTGT (sugars k3 d10 k3, PS) | 59% |
| TCCTGAATTTACAGCA (sugars k3 d10 k3, PS) | 48% |
| TCGCAGGAGCGCGGAG (sugars k3 d10 k3, PS) | -37% |
| TCTAATGGTGCTCCTA (sugars k3 d10 k3, PS) | 51% |
| TCTGTAGGGCGACTAA (sugars k3 d10 k3, PS) | 65% |
| TCTTCCAGCAAGACCT (sugars k3 d10 k3, PS) | 28% |
| TCTTGAATAGAGGAAT (sugars k3 d10 k3, PS) | 42% |
| TCTTTGAAGTGCTGTG (sugars k3 d10 k3, PS) | 57% |
| TCTTTTTAGTTCATAC (sugars k3 d10 k3, PS) | 26% |
| TGAAAGACCCCAGCTA (sugars k3 d10 k3, PS) | 4% |
| TGAAATGTCAAACCCT (sugars k3 d10 k3, PS) | 54% |
| TGAATAGAGGAATGGC (sugars k3 d10 k3, PS) | 21% |
| TGACAAGAACTGCTGT (sugars k3 d10 k3, PS) | 18% |
| TGACATCATTTAGGTA (sugars k3 d10 k3, PS) | 54% |
| TGACATGCTTTGTCCT (sugars k3 d10 k3, PS) | 59% |

| Sequence | target mRNA inhibition |
| --- | --- |
| TGAGAGACGAAAACAG (sugars k3 d10 k3, PS) | -9% |
| TGATAGTGGTGATGTC (sugars k3 d10 k3, PS) | 54% |
| TGCAACTGGCTCACTA (sugars k3 d10 k3, PS) | 17% |
| TGCAAGTATGTAGCAA (sugars k3 d10 k3, PS) | 3% |
| TGCATCTATAAGATGT (sugars k4 d8 k4, PS) | 10% |
| TGCCAATCAGATGTCA (sugars k3 d10 k3, PS) | 22% |
| TGCCTAGGACTAAGGA (sugars k3 d10 k3, PS) | 26% |
| TGCGAAGAATTTTAGC (sugars k3 d10 k3, PS) | 41% |
| TGCTACTGCGGACATC (sugars k3 d10 k3, PS) | 43% |
| TGCTAGGACACAGCTG (sugars k3 d10 k3, PS) | 43% |
| TGCTTGAGGTTTTCCT (sugars k3 d10 k3, PS) | 80% and 76% |
| TGGAACAGTAACTTGA (sugars k3 d10 k3, PS) | 12% |
| TGGAACTCATAGGTGT (sugars k3 d10 k3, PS) | 62% |
| TGGAACTCTAGTGTCC (sugars k3 d10 k3, PS) | 2% |
| TGGAGGTCTTTGGGAT (sugars k3 d10 k3, PS) | 58% |
| TGGATCTGAATTGTTA (sugars k3 d10 k3, PS) | 55% |
| TGGCACAGTCTTTTCG (sugars k3 d10 k3, PS) | 28% |
| TGGCAGTCTACAGAAC (sugars k3 d10 k3, PS) | -22% |
| TGGCTAGCAGAGGTTC (sugars k4 d8 k4, PS) | 9% |
| TGGTAACTGTATGGAA (sugars k3 d10 k3, PS) | 48% |

| Sequence | target mRNA inhibition |
| --- | --- |
| TGGTAATCTTCTGGAT (sugars k3 d10 k3, PS) | 24% |
| TGTAACTCTGAGTAGA (sugars k3 d10 k3, PS) | 43% |
| TGTAACTGAGGACTCA (sugars k3 d10 k3, PS) | -2% |
| TGTAAGGGCTGCTCAT (sugars k3 d10 k3, PS) | 49% |
| TGTAAGGTCTGAGAGC (sugars k3 d10 k3, PS) | 25% |
| TGTAATGTAGGGATAC (sugars k3 d10 k3, PS) | 53% |
| TGTATACCAACGACAG (sugars k3 d10 k3, PS) | 58% |
| TGTCACTATGCCTGAA (sugars k3 d10 k3, PS) | 27% |
| TGTGTCAAAGAGCTTG (sugars k4 d8 k4, PS) | 26% |
| TGTTAAGTCCCATCTG (sugars k3 d10 k3, PS) | 25% |
| TGTTACTTTCAAATCG (sugars k3 d10 k3, PS) | 48% |
| TTAAAGAGCGCATTTC (sugars k3 d10 k3, PS) | 41% |
| TTAATTATGCAGAAGC (sugars k3 d10 k3, PS) | 13% |
| TTACACCCAGAAGTAC (sugars k3 d10 k3, PS) | 5% |
| TTACACTGGATCTGAA (sugars k3 d10 k3, PS) | 38% |
| TTACATCCTAGAACAC (sugars k3 d10 k3, PS) | 3% |
| TTAGGAACGAAGAGCA (sugars k3 d10 k3, PS) | 32% |
| TTATAACCGGTAGAGT (sugars k3 d10 k3, PS) | 38% |
| TTATAGTAGGTAAGAT (sugars k3 d10 k3, PS) | 2% |
| TTATATACTGGTTGGT (sugars k3 d10 k3, PS) | 49% |

Source: the OligoGym collection
